Several values for one entry are separate records, joined by “and”; a condition that tells them apart may be missing. Identical values can stand only once.
Experiments:
Settings in all cases: incubation time: 72 h
[1] = test system: BT-549; experiment: normalised viability (% of control), CellTiter-Blue; higher = more viable cells (about 100 = DMSO control)
Outline: (§1)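 The reported quantity is normalised viability at a single listed concentration of the series. Compound in 5 µl medium was pre-dispensed into 384-well plates and 20 µl of breast cancer cell suspension was added for 72 h. A 2 h, 37 °C CellTiter-Blue step (2.5 µl) preceded fluorescence reading at 560/590 nm, and plates were normalised to vehicle (100) and a positive kill control (0).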

[2] = test system: CAL-120; experiment: as above
Outline: as §1

[3] = test system: CAL-51; experiment: as above
Outline: as §1

[4] = test system: CAL-85-1; experiment: as above
Outline: as §1

[5] = test system: DU-4475; experiment: as above
Outline: as §1

[6] = test system: HCC1143; experiment: as above
Outline: as §1

[7] = test system: HCC1599; experiment: as above
Outline: as §1

[8] = test system: HCC1937; experiment: as above
Outline: as §1

[9] = test system: Hs578T; experiment: as above
Outline: as §1

[10] = test system: MDA-MB-453; experiment: as above
Outline: as §1

[11] = test system: MDA-MB-468; experiment: as above
Outline: as §1

[12] = test system: MFM-223; experiment: as above
Outline: as §1

[13] = test system: SK-BR-3; experiment: as above
Outline: as §1

[14] = test system: BT-549; experiment: drug sensitivity score (DSS), CellTiter-Blue viability (DSS (AUC-based score)); higher = stronger viability inhibition; extreme values may be limits of the assay
Experimental: (§2)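 DSRT with the CellTiter-Blue (resazurin reduction) viability readout, fluorescence 560/590 nm, 72 h incubation. Plates were normalised to DMSO and benzethonium chloride controls. DSS is computed from the area under the fitted dose-response curve (5 or 9 concentrations).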

[15] = test system: CAL-120; experiment: as above
Experimental: as §2

[16] = test system: CAL-51; experiment: as above
Experimental: as §2

[17] = test system: CAL-85-1; experiment: as above
Experimental: as §2

[18] = test system: DU-4475; experiment: as above
Experimental: as §2

[19] = test system: HCC1143; experiment: as above
Experimental: as §2

[20] = test system: HCC1599; experiment: as above
Experimental: as §2

[21] = test system: HCC1937; experiment: as above
Experimental: as §2

[22] = test system: HDQ-P1; experiment: as above
Experimental: as §2

[23] = test system: Hs578T; experiment: as above
Experimental: as §2

[24] = test system: MDA-MB-436; experiment: as above
Experimental: as §2

[25] = test system: MDA-MB-453; experiment: as above
Experimental: as §2

[26] = test system: MDA-MB-468; experiment: as above
Experimental: as §2

[27] = test system: MFM-223; experiment: as above
Experimental: as §2

[28] = test system: SK-BR-3; experiment: as above
Experimental: as §2

CC[C@]1(O)C[C@H]2CN(CCc3c([nH]c4ccccc34)[C@@](C(=O)OC)(c3cc4c(cc3OC)N(C=O)[C@H]3[C@@](O)(C(=O)OC)[C@H](OC(C)=O)[C@]5(CC)C=CCN6CC[C@]43[C@@H]65)C2)C1 [Vincristine] gave a normalised viability ([1]; 1000 nM) of 14.6%, a normalised viability ([1]; 10000 nM) of 20.2% and a normalised viability ([2]; 1000 nM) of 19.9%. For the same molecule, the normalised viability ([2]; 10000 nM) was 20.6%, the normalised viability ([3]; 10 nM) was 70.6% and the normalised viability ([3]; 100 nM) was 18%. It also gave a normalised viability ([4]; 10 nM) of 33.4%, a normalised viability ([4]; 100 nM) of 39.2% and a normalised viability ([5]; 10 nM) of 56%. The normalised viability ([5]; 100 nM) was 19.5%, the normalised viability ([6]; 1000 nM) was 32.1% and the normalised viability ([6]; 10000 nM) was 33.6%. It also gave a normalised viability ([7]; 1000 nM) of 73.7%, a normalised viability ([7]; 10000 nM) of 45.7% and a normalised viability ([8]; 1000 nM) of 13.2%. For the same molecule, the normalised viability ([8]; 10000 nM) was 16.1%, the normalised viability ([9]; 1000 nM) was 12.7% and the normalised viability ([9]; 10000 nM) was 15.9%. The normalised viability ([10]; 10 nM) was 26.9%, the normalised viability ([10]; 100 nM) was 30.8% and the normalised viability ([11]; 1000 nM) was 41.1%. It also gave a normalised viability ([11]; 10000 nM) of 38.4%, a normalised viability ([12]; 1000 nM) of 27.9% and a normalised viability ([12]; 10000 nM) of 20.5%. The normalised viability ([13]; 1000 nM) was 16.6%, the normalised viability ([13]; 10000 nM) was 16.8% and the drug sensitivity score [14] was 25.5 and 32. The drug sensitivity score [15] was 27.8 and 35.7, the drug sensitivity score [16] was 17.5 and 26.3 and the drug sensitivity score [17] was 17.9 and 25. The drug sensitivity score [18] was 18.9 and 28.9, the drug sensitivity score [19] was 22.6 and 27.4 and the drug sensitivity score [20] was 6.95 and 15.8. The drug sensitivity score [21] was 23.5 and 35, the drug sensitivity score [22] was 17.8 and 20.6 and the drug sensitivity score [23] was 26.5 and 37.7. The drug sensitivity score [24] was 18 and 21, the drug sensitivity score [25] was 19.7 and 30.5 and the drug sensitivity score [26] was 23.8 and 23.7. The drug sensitivity score [27] was 16.9 and 22.7 and the drug sensitivity score [28] was 33.6 and 41.1.

Reference: the supplement of paper PMC4862054
